Source: PubChem BioAssay (NCI)
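Results reflect a 48-hour exposure of cells in 96-well plates to compound at five concentrations. TGI denotes the concentration required for complete inhibition of growth.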

How the values were obtained:
Assay in all cases: NCI tumour cell line growth inhibition, 48 h
UACC-257 melanoma = test system: UACC-257 melanoma
MCF7 breast = test system: MCF7 breast
SN12C renal = test system: SN12C renal
HCC-2998 colon = test system: HCC-2998 colon
OVCAR-8 ovarian = test system: OVCAR-8 ovarian
BT-549 breast = test system: BT-549 breast
RXF 393 renal = test system: RXF 393 renal
ACHN renal = test system: ACHN renal
MDA-MB-231 breast = test system: MDA-MB-231 breast
MOLT-4 leukemia = test system: MOLT-4 leukemia
CAKI-1 renal = test system: CAKI-1 renal
OVCAR-5 ovarian = test system: OVCAR-5 ovarian
A549 NSCLC = test system: A549 NSCLC
HL-60(TB) leukemia = test system: HL-60(TB) leukemia
SF-539 CNS = test system: SF-539 CNS
SF-268 CNS = test system: SF-268 CNS
TK-10 renal = test system: TK-10 renal
NCI-H226 lung = test system: NCI-H226 lung
MALME-3M melanoma = test system: MALME-3M melanoma
786-0 renal = test system: 786-0 renal
SNB-75 CNS = test system: SNB-75 CNS
SW-620 colon = test system: SW-620 colon
M14 melanoma = test system: M14 melanoma
HS 578T breast = test system: HS 578T breast
UACC-62 melanoma = test system: UACC-62 melanoma
EKVX NSCLC = test system: EKVX NSCLC
DU-145 prostate = test system: DU-145 prostate
UO-31 renal = test system: UO-31 renal
MDA-MB-435 = test system: MDA-MB-435
NCI-H522 lung = test system: NCI-H522 lung
NCI-H23 lung = test system: NCI-H23 lung
NCI/ADR-RES ovarian = test system: NCI/ADR-RES ovarian
HCT-15 colon = test system: HCT-15 colon
OVCAR-3 ovarian = test system: OVCAR-3 ovarian
SNB-19 CNS = test system: SNB-19 CNS
SK-MEL-2 melanoma = test system: SK-MEL-2 melanoma
SF-295 CNS = test system: SF-295 CNS
MDA-N = test system: MDA-N
SK-OV-3 ovarian = test system: SK-OV-3 ovarian
CCRF-CEM leukemia = test system: CCRF-CEM leukemia
PC-3 prostate = test system: PC-3 prostate
SK-MEL-28 melanoma = test system: SK-MEL-28 melanoma
RPMI-8226 leukemia = test system: RPMI-8226 leukemia
NCI-H460 lung = test system: NCI-H460 lung
U251 CNS = test system: U251 CNS
HCT-116 colon = test system: HCT-116 colon
COLO 205 colon = test system: COLO 205 colon
KM12 colon = test system: KM12 colon
IGROV1 ovarian = test system: IGROV1 ovarian
T-47D breast = test system: T-47D breast
SR leukemia = test system: SR leukemia
K-562 leukemia = test system: K-562 leukemia
A498 renal = test system: A498 renal
OVCAR-4 ovarian = test system: OVCAR-4 ovarian
HT29 colon = test system: HT29 colon
SK-MEL-5 melanoma = test system: SK-MEL-5 melanoma
HOP-62 NSCLC = test system: HOP-62 NSCLC
HOP-92 NSCLC = test system: HOP-92 NSCLC
LOX IMVI melanoma = test system: LOX IMVI melanoma

COC(=O)C1=C(O)C(C(=O)OC)C2CC(=O)CC1C2(C)C (stereo not given)
TGI (UACC-257 melanoma): > 100 µM
TGI (MCF7 breast): > 100 µM
TGI (SN12C renal): > 100 µM
TGI (HCC-2998 colon): > 100 µM
TGI (OVCAR-8 ovarian): > 100 µM
TGI (BT-549 breast): > 100 µM
TGI (RXF 393 renal): > 100 µM
TGI (ACHN renal): > 100 µM
TGI (MDA-MB-231 breast): > 100 µM
TGI (MOLT-4 leukemia): > 100 µM
TGI (CAKI-1 renal): > 100 µM
TGI (OVCAR-5 ovarian): > 100 µM
TGI (A549 NSCLC): > 100 µM
TGI (HL-60(TB) leukemia): > 100 µM
TGI (SF-539 CNS): > 100 µM
TGI (SF-268 CNS): > 100 µM
TGI (TK-10 renal): > 100 µM
TGI (NCI-H226 lung): > 100 µM
TGI (MALME-3M melanoma): > 100 µM
TGI (786-0 renal): > 100 µM
TGI (SNB-75 CNS): > 100 µM
TGI (SW-620 colon): > 100 µM
TGI (M14 melanoma): > 100 µM
TGI (HS 578T breast): > 100 µM
TGI (UACC-62 melanoma): > 100 µM
TGI (EKVX NSCLC): > 100 µM
TGI (DU-145 prostate): > 100 µM
TGI (UO-31 renal): > 100 µM
TGI (MDA-MB-435): > 100 µM
TGI (NCI-H522 lung): > 100 µM
TGI (NCI-H23 lung): > 100 µM
TGI (NCI/ADR-RES ovarian): > 100 µM
TGI (HCT-15 colon): > 100 µM
TGI (OVCAR-3 ovarian): > 100 µM
TGI (SNB-19 CNS): > 100 µM
TGI (SK-MEL-2 melanoma): > 100 µM
TGI (SF-295 CNS): > 100 µM
TGI (MDA-N): > 100 µM
TGI (SK-OV-3 ovarian): > 100 µM
TGI (CCRF-CEM leukemia): > 100 µM
TGI (PC-3 prostate): > 100 µM
TGI (SK-MEL-28 melanoma): > 100 µM
TGI (RPMI-8226 leukemia): > 100 µM
TGI (NCI-H460 lung): > 100 µM
TGI (U251 CNS): > 100 µM
TGI (HCT-116 colon): > 100 µM
TGI (COLO 205 colon): > 100 µM
TGI (KM12 colon): > 100 µM
TGI (IGROV1 ovarian): > 100 µM
TGI (T-47D breast): > 100 µM
TGI (SR leukemia): > 100 µM
TGI (K-562 leukemia): > 100 µM
TGI (A498 renal): > 100 µM
TGI (OVCAR-4 ovarian): > 100 µM
TGI (HT29 colon): > 100 µM
TGI (SK-MEL-5 melanoma): > 100 µM
TGI (HOP-62 NSCLC): > 100 µM
TGI (HOP-92 NSCLC): > 100 µM

COc1ccc(N2C(=O)C3c4[nH]c5ccc(OCc6ccccc6)cc5c4C4CCC(c5ccccc5)CC4C3C2=O)cc1 (stereo not given)
TGI (UACC-257 melanoma): > 100 µM
TGI (MCF7 breast): > 75 µM
TGI (SN12C renal): > 100 µM
TGI (HCC-2998 colon): > 100 µM
TGI (OVCAR-8 ovarian): 47.5 µM
TGI (BT-549 breast): 17 µM
TGI (RXF 393 renal): 21.1 µM
TGI (ACHN renal): 41.5 µM
TGI (MDA-MB-231 breast): 27.3 µM
TGI (MOLT-4 leukemia): > 36.8 µM
TGI (CAKI-1 renal): 25.8 µM
TGI (OVCAR-5 ovarian): > 95.8 µM
TGI (A549 NSCLC): > 39 µM
TGI (HL-60(TB) leukemia): 33.3 µM
TGI (SF-539 CNS): 7.17 µM
TGI (SF-268 CNS): 37.4 µM
TGI (TK-10 renal): 42.2 µM
TGI (NCI-H226 lung): > 83.8 µM
TGI (MALME-3M melanoma): 45.6 µM
TGI (786-0 renal): 7.51 µM
TGI (SNB-75 CNS): 27.2 µM
TGI (SW-620 colon): 4.61 µM
TGI (M14 melanoma): > 100 µM
TGI (HS 578T breast): 25.8 µM
TGI (UACC-62 melanoma): 29 µM
TGI (EKVX NSCLC): 38.2 µM
TGI (DU-145 prostate): > 100 µM
TGI (UO-31 renal): > 96.9 µM
TGI (MDA-MB-435): 12.1 µM
TGI (NCI-H522 lung): > 44.6 µM
TGI (NCI-H23 lung): 32.4 µM
TGI (NCI/ADR-RES ovarian): > 100 µM
TGI (HCT-15 colon): > 84 µM
TGI (OVCAR-3 ovarian): > 89 µM
TGI (SNB-19 CNS): 40.1 µM
TGI (SK-MEL-2 melanoma): 68 µM
TGI (SF-295 CNS): 36.5 µM
TGI (MDA-N): > 100 µM
TGI (SK-OV-3 ovarian): 22.6 µM
TGI (CCRF-CEM leukemia): 26.8 µM
TGI (PC-3 prostate): 96.5 µM
TGI (NCI-H460 lung): 12.3 µM
TGI (U251 CNS): 11.2 µM
TGI (HCT-116 colon): > 100 µM
TGI (COLO 205 colon): > 100 µM
TGI (KM12 colon): > 85.7 µM
TGI (IGROV1 ovarian): > 74.3 µM
TGI (LOX IMVI melanoma): > 100 µM
TGI (T-47D breast): 77.3 µM
TGI (SR leukemia): 7.14 µM
TGI (K-562 leukemia): 12 µM
TGI (A498 renal): 50.4 µM
TGI (OVCAR-4 ovarian): 3.04 µM
TGI (HT29 colon): > 100 µM
TGI (SK-MEL-5 melanoma): > 93.7 µM
TGI (HOP-62 NSCLC): 10.2 µM
TGI (HOP-92 NSCLC): 10.3 µM
